The structures appear in SMILES notation.

The nature of series [1]: TBA (2-thiobarbituric acid) lipid oxidation test. Type of series: physicochemical. Particulars: 1, 2, and 4% α-tocopherol in SL, after 48 hours. The protocol: TBA. A modified extraction 2-thiobarbituric acid method was used, Salih, et al., Poult. Sci., 66:1483-1488 (1987). The TBA test expresses lipid oxidation in milligram malonaldehyde (secondary oxidation product of polyunsaturated fatty acids) per kilogram of sample. 1±0.002 grams of SL was mixed with 0.01, 0.02, and 0.04 grams of α-tocopherol in a 25 mL flask and left at room temperature without protection from light for 12, 24, and 48 hours. Each sample was then purged with nitrogen and stored at −90° C. until assay. One milliliter of 6% BHT in ethanol and 25 mL 5% TCA solution in distilled water were added to each sample and blended. A 2 mL aliquot of the blended sample was mixed with 0.02 M TBA solution (3 mL) in screw capped test tubes. After vortexing (30 sec.), the tubes were incubated in boiling water for 30 min., cooled and the absorbance against blank was measured at 535 nm. A 5 μL aliquot of TEP (0.92 g/mL) was diluted to 5 mL with 5% TCA solution and diluted to prepare various concentrations ranging from […]. Each dilution was incubated and the absorbance against blank was measured after cooling. Standard curve was plotted using absorbance values vs amount of TEP which was converted from concentration.

Series [2] can be described thus: Oxidative stability index (OSI). Type of series: physicochemical. As to conditions: 80° C., air flow […]. On the procedure:
Oxidative stability index (OSI). An Oxidative Stability Instrument (Omnion, Rockland, Mass.) was used to measure induction times. Five grams of tricaprylin, EPAX 5500 (fish oil TAG, Pronova Biocare, Sandefjord, Norway), and SL which was deacidified by alkali-liquid extraction were placed into the disposable borosilicate glass reaction tubes with disposable pipets. The heating temperature was 80° C. The polycarbonate conductivity tubes were filled with deionized water and he probes were connected. After temperature reached 80° C., air was bubbled in. […] OSI time was determined with an on-line computer, which monitored the conductivity vs time and plotted the induction period automatically. OSI values at 80° C. were converted to AOM and OSI values at 97.8° C.

In the case of `Cc1c(C)c2c(c(C)c1O)CC[C@@](C)(CCC[C@H](C)CCC[C@H](C)CCCC(C)C)O2` [α-tocopherol], the “antioxidant effect on SL (TBA)” value in series [1] was “reduced the oxidation of SL significantly”.
As for `CCCCCCCC(=O)OCC(COC(=O)CCCCCCC)OC(=O)CCCCCCC` [tricaprylin, 1,2,3-trioctanoyl glycerol], in series [2], the OSI value entry is listed as “quite stable to oxidation”.
